{
  "source": "paper PMC7868322",
  "about": "“Rational Design of A Novel Small-Molecule HIV-1 Inactivator Targeting Both gp120 and gp41 of HIV-1” (Frontiers in Pharmacology, 2021)",
  "key": {"HIV-1 IIIB": {"system": "HIV-1 IIIB", "assay": "Inactivation of cell-free HIV-1 virions (PEG-6000 precipitation, p24 ELISA)", "format": "cell-based", "settings": "Human immunodeficiency virus 1, IIIB; cell-free virions, 1 h at 4°C, PEG-6000 precipitation; read-out: EC50, inactivation of HIV-1 IIIB"}, "[1]": {"molecular_target": "T1, 6HB formation between N36 and C34-biotin (Human immunodeficiency virus type 1 group M subtype B, UniProt P04578)", "T1 construct": "preincubated with N36 peptide (2 μM, 50 μL) at 37°C for 1 h; purchased NIH AIDS Reagent Program", "T1 sequence (P04578 546-581)": "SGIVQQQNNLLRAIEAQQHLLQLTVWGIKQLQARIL", "assay": "ELISA inhibition of six-helix bundle formation", "format": "biochemical, HIV-1", "settings": "IC50, inhibition of 6HB formation between N36 and C34-biotin, peptides 0.5 μM final", "protocol": "An inhibitor (compound or C-peptide control) at graded concentrations was preincubated with N36 peptide (2 μM, 50 μL) at 37°C for 1 h. […] Subsequently, 50 μL of the mixture were added to the wells of the NC-1-coated plate, followed by incubation for 1 h. Then, HRP-labeled streptavidin and the substrate were added sequentially. The optical density at 450 nm was measured using a microplate reader (Tecan, Männedorf, Switzerland)."}, "[2]": {"molecular_target": "T2, 6HB formation between N36 and C34 (Human immunodeficiency virus type 1 group M subtype B, UniProt P04578)", "T2 construct": "purchased NIH AIDS Reagent Program", "T2 sequence (P04578 546-581)": "as above", "assay": "N-PAGE inhibition of six-helix bundle formation", "format": "biochemical, HIV-1", "settings": "peptides 40 μM final", "method": "The sample was mixed with Tris-glycine native sample buffer and then loaded onto the 18% Tris-glycine gel. Gel electrophoresis was carried out with 125 V constant voltage at room temperature for 3 h."}, "Cytotoxicity (CCK-8)": {"assay": "Cytotoxicity (CCK-8)", "format": "cell-based", "settings": "human", "method": "Cell viability was detected following the instructions in the protocol provided in the cell counting kit-8 (CCK-8; Dojindo Molecular Technologies, Gaithersburg, MD, USA) as previously described ([Yang et al., 2018]). Briefly, MT-2 cells and CEMx174 517 5.25 M7 cells (3 × 10^4/well) were incubated with compounds at different concentrations at 37°C for 48 h. Then, the supernatant was discarded, and CCK8 diluted 10 times with fresh medium was added (200 μL/well). After 2–6 h of incubation at 37°C, the absorbance at 450 nm was measured using a microplate reader (Tecan, Männedorf, Switzerland)."}, "92/UG/001 (D, R5 and X4)": {"system": "92/UG/001 (D, R5 and X4)", "assay": "Inhibition of HIV-1 clinical virus infection", "format": "cell-based", "settings": "Human immunodeficiency virus 1; HIV-1 clinical virus 92/UG/001 (D, R5 and X4); means ± SD"}, "92/UG/024 (D, X4)": {"system": "92/UG/024 (D, X4)", "assay": "Inhibition of HIV-1 clinical virus infection", "format": "cell-based", "settings": "Human immunodeficiency virus 1; HIV-1 clinical virus 92/UG/024 (D, X4); means ± SD"}, "93/BR/020 (F, R5 and X4)": {"system": "93/BR/020 (F, R5 and X4)", "assay": "Inhibition of HIV-1 clinical virus infection", "format": "cell-based", "settings": "Human immunodeficiency virus 1; HIV-1 clinical virus 93/BR/020 (F, R5 and X4); means ± SD"}, "WT (NL4-3 D36G)": {"system": "WT (NL4-3 D36G)", "format": "cell-based, HIV-1", "settings": "T20-resistant virus panel, means ± SD"}, "T20-resistant virus V38A [3]": {"system": "T20-resistant virus V38A", "format": "cell-based, HIV-1", "settings": "means ± SD"}, "[4]": {"system": "T20-resistant virus V38A N42T", "format": "cell-based, HIV-1", "settings": "means ± SD"}, "[5]": {"system": "T20-resistant virus V38A N42D", "format": "cell-based, HIV-1", "settings": "means ± SD"}, "[6]": {"system": "T20-resistant virus V38E N42S", "format": "cell-based, HIV-1", "settings": "means ± SD"}, "[7]": {"system": "T2635-resistant virus K90E", "format": "cell-based, HIV-1", "settings": "means ± SD"}, "[8]": {"system": "T2635-resistant virus N113E", "format": "cell-based, HIV-1", "settings": "means ± SD"}, "[9]": {"system": "T2635-resistant virus Q66R N126K", "format": "cell-based, HIV-1", "settings": "means ± SD"}, "[10]": {"system": "T2635-resistant virus K90E N126K", "format": "cell-based, HIV-1", "settings": "means ± SD"}, "[11]": {"system": "T2635-resistant virus H3C", "format": "cell-based, HIV-1", "settings": "T2635-resistant virus H3C (A6V L33S Q66R N126K H132Q E136G); means ± SD"}, "92/TH/009 (A/E, R5)": {"system": "92/TH/009 (A/E, R5)", "assay": "Inactivation of cell-free HIV-1 clinical virus", "format": "cell-based", "settings": "Human immunodeficiency virus 1, inactivation of cell-free virions, means ± SD"}, "KNH1135 (A, R5)": {"system": "KNH1135 (A, R5)", "assay": "microbe, parasite or virus in culture", "format": "cell-based, HIV-1", "settings": "Human immunodeficiency virus 1; inactivation of cell-free virions, clinical virus KNH1135 (A, R5); means ± SD"}, "SM145/GS 016 (C, R5)": {"system": "SM145/GS 016 (C, R5)", "assay": "Inactivation of cell-free HIV-1 clinical virus", "format": "cell-based", "settings": "Human immunodeficiency virus 1, inactivation of cell-free virions, means ± SD"}, "PBL288 (C, R5)": {"system": "PBL288 (C, R5)", "assay": "Inactivation of cell-free HIV-1 clinical virus", "format": "cell-based", "settings": "Human immunodeficiency virus 1, inactivation of cell-free virions, means ± SD"}, "D36G (NL4-3 WT)": {"system": "D36G (NL4-3 WT)", "format": "cell-based, HIV-1", "settings": "inactivation of cell-free virions, T20-resistant panel D36G (NL4-3 WT); means ± SD"}, "[12]": {"system": "T20-resistant virus V38A N42D", "format": "cell-based, HIV-1", "settings": "inactivation of cell-free virions, means ± SD"}, "T20-resistant virus V38A [13]": {"system": "T20-resistant virus V38A", "format": "cell-based, HIV-1", "settings": "inactivation of cell-free virions, means ± SD"}, "[14]": {"system": "T20-resistant virus V38E N42S", "format": "cell-based, HIV-1", "settings": "inactivation of cell-free virions, means ± SD"}, "[15]": {"system": "T20-resistant virus V38A N42T", "format": "cell-based, HIV-1", "settings": "inactivation of cell-free virions, means ± SD"}, "[16]": {"system": "T2635-resistant virus N113E", "format": "cell-based, HIV-1", "settings": "inactivation of cell-free virions, means ± SD"}, "[17]": {"system": "T2635-resistant virus Q66R N126K", "format": "cell-based, HIV-1", "settings": "inactivation of cell-free virions, means ± SD"}, "[18]": {"system": "T2635-resistant virus K90E N126K", "format": "cell-based, HIV-1", "settings": "inactivation of cell-free virions, means ± SD"}, "[19]": {"system": "T2635-resistant virus Q66R N113E", "format": "cell-based, HIV-1", "settings": "inactivation of cell-free virions, means ± SD"}, "[20]": {"system": "T2635-resistant virus H3C", "assay": "microbe, parasite or virus in culture", "format": "cell-based, HIV-1", "settings": "Human immunodeficiency virus 1"}, "WT (LAI)": {"system": "WT (LAI)", "assay": "microbe, parasite or virus in culture", "settings": "Human immunodeficiency virus 1", "protocol": "The inactivation activities of the compounds, alone or in combination, against different cell-free HIV-1 virions were measured as previously described ([Qi et al., 2017]). Briefly, different concentrations of compound or PBS were incubated with 800 TCID50 live virus for 1 h at 4°C. Subsequently, PEG-6000 was added to a final concentration of 3% and incubated for another 1 h at 4°C. The virus was collected by centrifugation of the mixture at 13,000 rpm at 4°C for 30 min. The supernatant was discarded, and the virus was resuspended in 3% PEG-6000 containing 10 mg/mL BSA and centrifuged at 13,000 rpm at 4°C for 30 min. The above procedure was repeated twice to completely remove residual compounds. Finally, the virus particles were resuspended in 100 μL of medium and added to 100 μL of 3 × 10^4 MT-2 or CEMx 174 5.25 M7 cells. After 3-4 days of incubation at 37°C, 50 μL of supernatant per well were collected and mixed with the same volume of 5% Triton X-100. The p24 antigen was detected by ELISA."}},
  "note": "“And” between values parts separate entries of the source, which are not always exact repeats. Identical values can stand only once. Like-named read-outs stand apart in the source and are kept apart here.",
  "data": [
    {"compound": "CC1(C)CC(NC(=O)C(=O)Nc2ccc(Cl)c(F)c2)CC(C)(C)N1C(=O)COc1ccc(CCN2C(=O)/C(=C/c3ccc(-c4ccc(Cl)c(C(=O)O)c4)o3)SC2=S)cc1", "note": "[FD028, (Z)-2-Chloro-5-(5-((3-(4-(2-(4-(2-((4-Chloro-3-Fluorophenyl)amino)-2-oxoacetamido)-2,2,6,6-Tetramethylpiperidin-1-yl)-2-oxoethoxy)phenethyl)-4-oxo-2-Thioxothiazolidin-5-ylidene)methyl)furan-2-yl)benzoic Acid]", "values": [
      {"measurement": "EC50", "setting": "HIV-1 IIIB", "result": 710, "unit": "nM"},
      {"measurement": "IC50", "setting": "[1]", "result": "2030 nM and ~2000 nM"},
      {"measurement": "IC50", "setting": "[2]", "result": "100000 to 200000", "unit": "nM"},
      {"measurement": "CC50 at 48 h", "setting": "Cytotoxicity (CCK-8); CEMx174 5.25 M7 cells, read-out: CC50, CEMx174 5.25 M7 cell", "result": 18200, "unit": "nM"},
      {"measurement": "CC50 at 48 h", "setting": "Cytotoxicity (CCK-8); MT-2 cells, read-out: CC50, MT-2 cell", "result": 29500, "unit": "nM"},
      {"measurement": "IC50", "setting": "92/UG/001 (D, R5 and X4)", "result": "450 ± 120", "unit": "nM"},
      {"measurement": "IC50", "setting": "92/UG/024 (D, X4)", "result": "1040 ± 160", "unit": "nM"},
      {"measurement": "IC50", "setting": "93/BR/020 (F, R5 and X4)", "result": "380 ± 30", "unit": "nM"},
      {"measurement": "IC50", "setting": "WT (NL4-3 D36G)", "result": "170 ± 60", "unit": "nM"},
      {"measurement": "IC50", "setting": "T20-resistant virus V38A [3]", "result": "1090 ± 130", "unit": "nM"},
      {"measurement": "IC50", "setting": "[4]", "result": "950 ± 60", "unit": "nM"},
      {"measurement": "IC50", "setting": "[5]", "result": "480 ± 110", "unit": "nM"},
      {"measurement": "IC50", "setting": "[6]", "result": "240 ± 20", "unit": "nM"},
      {"measurement": "IC50", "setting": "[7]", "result": "790 ± 280", "unit": "nM"},
      {"measurement": "IC50", "setting": "[8]", "result": "570 ± 130", "unit": "nM"},
      {"measurement": "IC50", "setting": "[9]", "result": "320 ± 80", "unit": "nM"},
      {"measurement": "IC50", "setting": "[10]", "result": "460 ± 110", "unit": "nM"},
      {"measurement": "IC50", "setting": "[11]", "result": "270 ± 60", "unit": "nM"},
      {"measurement": "EC50", "setting": "92/TH/009 (A/E, R5)", "result": "260 ± 60", "unit": "nM"},
      {"measurement": "EC50", "setting": "KNH1135 (A, R5)", "result": "1230 ± 320", "unit": "nM"},
      {"measurement": "EC50", "setting": "SM145/GS 016 (C, R5)", "result": "960 ± 90", "unit": "nM"},
      {"measurement": "EC50", "setting": "PBL288 (C, R5)", "result": "540 ± 180", "unit": "nM"},
      {"measurement": "EC50", "setting": "D36G (NL4-3 WT)", "result": "410 ± 20", "unit": "nM"},
      {"measurement": "EC50", "setting": "[12]", "result": "630 ± 140", "unit": "nM"},
      {"measurement": "EC50", "setting": "T20-resistant virus V38A [13]", "result": "780 ± 190", "unit": "nM"},
      {"measurement": "EC50", "setting": "[14]", "result": "490 ± 30", "unit": "nM"},
      {"measurement": "EC50", "setting": "[15]", "result": "320 ± 110", "unit": "nM"},
      {"measurement": "EC50", "setting": "[16]", "result": "1200 ± 160", "unit": "nM"},
      {"measurement": "EC50", "setting": "[17]", "result": "140 ± 70", "unit": "nM"},
      {"measurement": "EC50", "setting": "[18]", "result": "490 ± 60", "unit": "nM"},
      {"measurement": "EC50", "setting": "[19]", "result": "360 ± 30", "unit": "nM"},
      {"measurement": "EC50", "setting": "[20]", "result": "1200 ± 140", "unit": "nM"},
      {"measurement": "EC50", "setting": "WT (LAI)", "result": "40 ± 10", "unit": "nM"}
    ]}
  ]
}
